Reference: patent publication US20250213593A1, “Use of Derivatives based on Sarsasapogenin Structure and Pharmaceutical Compositions thereof” (BEIJING PHYTOVENT PHARMACEUTICAL TECHNOLOGY CO., LTD., priority 2022, published 2025)
pIC50: −log10 of the molar value. Like-named read-outs stand apart in the source and are kept apart here.

How the values were obtained:
[1] = test system: HT cells (human mixed lymphoma cells); assay: Cell proliferation assay, HT; assay type: cell-based; settings: Homo sapiens, HT, 72 h
Description: (§1) • Experimental and analytical method: cells were inoculated into a 96-well cell culture plate with a lid at a maximum concentration of 10 μM for a test compound, and diluted in three folds to a series of test concentrations, and cells were incubated at 37° C., 5% CO2 for 72 h. The concentration of DMSO was 0.5%, 100 μl of medium was taken from each well. 100 μl of reagent (Celltitute Glo Assay Kit) was added to each well, and a flat plate was shaken on a plate shaker (protected from light) for 2 min. A culture plate was incubated (protected from light) at room temperature for 30 min. Chemiluminescence values were recorded by a multi-plate plate reader, and the experimental results were as follows:
(§2) U937 (histiocytic lymphoma cells), OCI-LY3 (human diffuse large B-cell lymphoma cells), U2932 (human diffuse large B-cell lymphoma cells), and HT cells (human mixed lymphoma cells) were analyzed in the table for experimental analysis of cell proliferation.

[2] = test system: U937 (histiocytic lymphoma cells); assay: Cell proliferation assay, U937; assay type: cell-based; settings: Homo sapiens, U-937, 72 h
Description: as §1, §2

hippocampal neurons = assay: L-cysteine-induced neuronal excitotoxicity; assay type: cell-based, SD rats; settings: compound 1 μM, 24 h before inducer
Description: Experimental and analytical method: before the experiment, a 24-well cell culture plate was pretreated with Poly-D-lysine and placed in a cell incubator at 37° C. and 5% CO2 overnight. SD rats, 18 days pregnant, were ordered, brains of fetal rats (E18-19) were dissected, and hippocampal neurons in the brains were subjected to primary culture in a neuronal medium using a 24-well plate, and then cultured by a serum-free medium. The hippocampal neurons were cultured in a cell incubator at 37° C., 5% CO2 for 19 days (DIV19), then added with a compound to be tested (a final concentration of 1 μM) and a positive control AP5 [(2R)-amino-5-phosphonopentanoic acid(phosphonatopentanoate)] (a final concentration of 100 μM), cultured for 24 h, and then added with L-Cystine (400 μM) and NaHCO3 (10 mM). After 18 h, Hoechst3342 (2.5 μg/ml) was added for cell staining. The cells were placed in the incubator and cultured for 15 min, and photographed using the high-content fluorescence microscope, wherein 6 random non-overlapping fields were photographed for each duplicate well, and the total number of neurons and the number of dead neurons were counted with software Image J. The obtained data was used to determine whether there was a difference between a drug treatment group and a control group.
Compound treatment: 32 small molecule compounds in Embodiment 1 to Embodiment 19A were diluted with DMSO to a 1 mM mother solution; and 1 μL of mother solution was added to 1 ml of culture solution per well in a 24-well plate to a final concentration of 1 μM, wherein a positive control compound was […] of AP5 (100 mM mother solution), and a negative control was 1 μl of DMSO.

[3] = test system: U2932 (human diffuse large B-cell lymphoma cells); assay: Cell proliferation assay, U2932; assay type: cell-based; settings: U2932, 72 h
Description: as §1, §2

[4] = test system: OCI-LY3 (human diffuse large B-cell lymphoma cells); assay: Cell proliferation assay, OCI-LY3; assay type: cell-based; settings: Homo sapiens, OCI-Ly3, 72 h
Description: as §1, §2

[5] = test system: Lepr gene mutant (DB) mice; assay: Excessive urination in DB animals; assay type: in vivo, mouse; settings: 80 mpk by gavage once every two days, 5 weeks; vs model group
Description: • Experimental and analytical method: leptin receptor gene (OB-R) was also known as diabetes gene (db), leptin receptor (Lepr) is closely related to obesity, hypertension, diabetes, lipid metabolism disorders, etc. The courses of these diseases are greatly influenced by the genetic background. Topical insulin can not control the increase in blood glucose and gluconeogenesis levels in the liver. Gene editing technologies and embryo injection technologies were used to construct Lepr gene mutant mice. […] The urine volume of each mouse of this strain was as huge as hundreds of times that of normal mice, so patients with frequent urination could be simulated. The experiment was divided into three groups, i.e., a model group (non-administrated, onset mice with high urine volume), a control group (non-administrated, non-onset normal mice), and an experimental group (administrated Embodiment 1A, 80 mpk, by gavage once every two days), with 2 mice in the control group, and 3 mice in the other two groups. The small molecule used was Embodiment 1A. We observed the urine volume in cages of mice housed in single cages starting from Week 8 and after 5 weeks of continuous drug treatment. […] Experiment 32. Cardiovascular Inflammation Alleviation Effect on APOE Mutant Mice Fed with High-Fat Diets.

Mia paca-2 cells = assay: In-vitro killing of pancreatic cancer cells (CellTiter-Glo); assay type: cell-based; settings: 11 small molecules, max 10 uM, 3-fold dilution
Description: • Experimental and analytical method: we used Mia paca-2 cells as a research object. This cell line was a pancreatic cancer cell line and was widely used in an antimicrobial susceptibility experiment. We performed the antimicrobial susceptibility experiment on 11 small molecules, with a maximum concentration of 10 uM and a 3-fold dilution, resulting in a concentration gradient of seven points. Cell viability assay was performed using CellTiter-Glo, and a dosage-response curve was plotted using GraphPad Prism. A resulting antimicrobial susceptibility curve was shown in the figure below. • Results: the antimicrobial susceptibility curve was shown in FIG. 53, where a lower IC50 value indicates a higher sensitivity to the small molecule.

[6] = test system: transgenic AD mice (C57BL/6J background); assay: Nesting behaviors of AD mice; assay type: in vivo, mouse; settings: administered from 2 months of age; tested 3 and 6 months after administration
Description: One symptom of AD patients was the inability to take care of themselves, while nesting behaviors reflected the self-care level of the mice. At the beginning of the experiment, 10 pieces of rectangular paper were placed neatly in mouse cages in order. Normal mice would tear up pieces of paper and build nests, while mice with severe AD symptoms would not tear up pieces of paper and build nests.

[7] = test system: transgenic AD mice (C57BL/6J background); assay: Light/dark box test of AD mice; assay type: in vivo, mouse; settings: 6 months after administration
Description: The principle of the light/dark box test is: the mice have a natural tendency to darkness; and after the mice was put into a light box, the mice would spontaneously enter a connected dark box. However, in this experiment, the dark box was equipped with an electrical stimulation mechanism, and the mice would be shocked when they entered the dark box.

[8] = test system: transgenic AD mice (C57BL/6J background); assay: Water maze test of AD mice; settings: 6 months after administration
Description: • Experimental and analytical method: in this experiment, transgenic mice from APP/P Embodiment 13B were used, and background mice were C57BL/6J. […] The process of the water maze test was divided into three stages: the first stage lasted for 1 day; and in order to adapt to this stage, there was an escape platform having a diameter of 8 cm in a large pool having a diameter of 1.2 m, and there were four marks of circle, triangle, box and fork in four directions of east, west, north and south on the pool wall as hints of spatial positions. The rats were sequentially placed into transparent water along the pool wall, with the water surface 1 cm below the escape platform. The mice would easily find the escape platform, and was then rescued from the water maze after climbing onto the platform, thereby learning basic rules of the water maze. The second stage lasted for 4 days and was a training stage. The settings for the tool remained unchanged, the water surface was raised to 1 cm above the escape platform, and ink was poured to strain the water black, so that the escape platform was not visible. Every day, the mice were put into the pool from the four directions of the east, south, west and north, and rescued after successfully climbing onto the escape platform. […]

SMILES: C[C@H]1CC[C@@]2(OC1)O[C@H]1C[C@H]3[C@@H]4CC[C@@H]5C[C@@H](NC(=O)CCN6CCN(C)CC6)CC[C@]5(C)[C@H]4CC[C@]3(C)[C@H]1[C@@H]2C [Embodiment 1A]
- pIC50 [1]: 5.78
- IC50 ([2]; low sugar, read-out: U937 (IC50, uM) Low sugar): 1.8 µM
- IC50 ([2]; normal sugar, read-out: U937 (IC50, uM) Normal sugar): 2.13 µM
- protective effects on L-Cystine (400 μM)-induced neuronal excitotoxicity (hippocampal neurons): protective effects
- pIC50 [3]: 6.21
- pIC50 [4]: 5.72
- urine wetting area in mouse cage [5]: significantly reduced

SMILES: C[C@H]1CC[C@@]2(OC1)O[C@H]1C[C@H]3[C@@H]4CC[C@@H]5C[C@@H](NC(=O)CC(=O)N6CCN(C7CCN(C)CC7)CC6)CC[C@]5(C)C4CC[C@]3(C)[C@H]1[C@@H]2C (stereo partly drawn) [Embodiment 26A]
- sensitivity of Mia paca-2 cells (IC50 comparison) (Mia paca-2 cells): highest sensitivity

SMILES: CCN1CCN(C2CCN(C(=O)CC(=O)NC3CC[C@]4(C)C5CC[C@]6(C)[C@@H]7[C@H](C[C@H]6[C@@H]5CC[C@@H]4C3)O[C@]3(CC[C@H](C)CO3)[C@H]7C)CC2)CC1 (stereo partly drawn) [Embodiment 25]
- nesting behavior score [6]: most obvious
- memory on electric shock (latency before entering the dark box) [7]: could effectively enhance the memory
- dwell time in a target quadrant [8]: most obvious
- number of platform shuttles [8]: most obvious
